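Each compound was tested at five concentrations against cells in 96-well plates for 48 hours. GI50 = concentration required for 50% inhibition of growth.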 The source made the active and inactive calls. No stated cut-off is given here; in the data, active = GI50 up to about 1.1 µM and inactive = higher.
Tests used:
Experiment in all cases: growth of human tumour cells (NCI), 48 h
[1] = tested on: U-251
[2] = tested on: UACC-62
[3] = tested on: Malme-3M
[4] = tested on: HOP-92
[5] = tested on: A549
[6] = tested on: IGROV-1
[7] = tested on: SK-OV-3
[8] = tested on: SF-268
[9] = tested on: SK-MEL-28
[10] = tested on: HCT-15
[11] = tested on: NCI-H460
[12] = tested on: SN12C
[13] = tested on: HCT-116
[14] = tested on: SF-295
[15] = tested on: HL-60
[16] = tested on: SK-MEL-5
[17] = tested on: CAKI-1

SMILES	GI50 [1]	GI50 [2]	GI50 [3]	GI50 [4]	GI50 [5]	GI50 [6]	GI50 [7]	GI50 [8]	GI50 [9]	GI50 [10] [µM]	GI50 [11]	GI50 [12]	GI50 [13]	GI50 [14]	GI50 [15]	GI50 [16]	GI50 [17]
C[N+]1(C)C/C(=C/c2ccc(F)cc2)C(=O)/C(=C\c2ccc(F)cc2)C1	16.4 µM (inactive)	13.8 µM (inactive)	42.1 µM (inactive)	> 100 µM (inactive)	74 µM (inactive)	26.1 µM (inactive)	> 100 µM (inactive)	23.3 µM (inactive)	15 µM (inactive)	> 100	50.9 µM (inactive)	2.14 µM (inactive)	> 100 µM (inactive)	50.6 µM (inactive)	17.3 µM (inactive)	–	–
CC(C)(C)c1ccc2c(c1)S(=O)(=O)Nc1cccc(c1)NS(=O)(=O)c1cc(C(C)(C)C)ccc1OCCOCCO2	> 100 µM (inactive)	> 100 µM (inactive)	> 100 µM (inactive)	50.6 µM (inactive)	> 100 µM (inactive)	> 100 µM (inactive)	> 100 µM (inactive)	> 100 µM (inactive)	> 100 µM (inactive)	> 100	> 100 µM (inactive)	> 100 µM (inactive)	> 100 µM (inactive)	> 100 µM (inactive)	–	> 100 µM (inactive)	> 100 µM (inactive)
COc1ccc2c(c1)CCc1c(C(C)=O)c3ccccc3n1C2	20.2 µM (inactive)	25.6 µM (inactive)	18.1 µM (inactive)	20.3 µM (inactive)	11.2 µM (inactive)	19.3 µM (inactive)	–	29.1 µM (inactive)	60.3 µM (inactive)	–	47.3 µM (inactive)	49.5 µM (inactive)	25.8 µM (inactive)	12.7 µM (inactive)	11.5 µM (inactive)	6.19 µM (inactive)	24 µM (inactive)
CC1=C(C(=O)NCc2ccccc2)C(c2ccccc2[N+](=O)[O-])C(C(=O)NCc2ccccc2)=C(C)N1	10.9 µM (inactive)	8.49 µM (inactive)	13.7 µM (inactive)	20.8 µM (inactive)	25.9 µM (inactive)	18.4 µM (inactive)	–	9.18 µM (inactive)	13.1 µM (inactive)	7.8	14 µM (inactive)	12 µM (inactive)	6.75 µM (inactive)	12.4 µM (inactive)	3.31 µM (inactive)	13.1 µM (inactive)	21.3 µM (inactive)
Cc1ccc(S(=O)(=O)N/N=C(\c2nc3ccc(Cl)cc3[nH]c2=O)C(O)c2ccco2)cc1 (stereo not drawn)	–	> 100 µM (inactive)	> 100 µM (inactive)	> 100 µM (inactive)	> 100 µM (inactive)	> 100 µM (inactive)	–	> 100 µM (inactive)	> 100 µM (inactive)	> 100	> 100 µM (inactive)	–	> 100 µM (inactive)	> 100 µM (inactive)	44 µM (inactive)	> 100 µM (inactive)	> 100 µM (inactive)
COc1ccc2c3ccc4c(c3n(C)c2c1)C(=O)C=CC4=O	> 100 µM (inactive)	40.3 µM (inactive)	30.5 µM (inactive)	14.1 µM (inactive)	> 100 µM (inactive)	> 100 µM (inactive)	> 100 µM (inactive)	44.3 µM (inactive)	84.9 µM (inactive)	42.6	–	40.4 µM (inactive)	19.6 µM (inactive)	> 100 µM (inactive)	3.84 µM (inactive)	> 100 µM (inactive)	–
CCOC(=O)C(C)(C)Oc1ccc(/C=C/C(=O)c2ccc(Cl)cc2)cc1	17.7 µM (inactive)	20.6 µM (inactive)	18.4 µM (inactive)	–	33.5 µM (inactive)	17.3 µM (inactive)	–	19.1 µM (inactive)	19.4 µM (inactive)	17.2	28.7 µM (inactive)	19.1 µM (inactive)	16.4 µM (inactive)	21 µM (inactive)	24.5 µM (inactive)	14.9 µM (inactive)	–
O=C(/C=C/c1ccccc1O)C(c1ccccc1)c1ccccc1	> 100 µM (inactive)	> 100 µM (inactive)	> 100 µM (inactive)	> 100 µM (inactive)	> 100 µM (inactive)	> 100 µM (inactive)	> 100 µM (inactive)	> 100 µM (inactive)	> 100 µM (inactive)	> 100	> 100 µM (inactive)	> 100 µM (inactive)	> 100 µM (inactive)	> 100 µM (inactive)	–	> 100 µM (inactive)	> 100 µM (inactive)
CC#CCC1CCC(OCC)=CC1=O (stereo not drawn)	> 100 µM (inactive)	> 100 µM (inactive)	–	> 100 µM (inactive)	> 100 µM (inactive)	> 100 µM (inactive)	> 100 µM (inactive)	> 100 µM (inactive)	> 100 µM (inactive)	> 100	> 100 µM (inactive)	> 100 µM (inactive)	> 100 µM (inactive)	> 100 µM (inactive)	> 100 µM (inactive)	> 100 µM (inactive)	> 100 µM (inactive)
COc1ccc(Br)c(C(=O)N2CCc3ccccc32)c1N	33.9 µM (inactive)	43.8 µM (inactive)	66.4 µM (inactive)	> 100 µM (inactive)	59.6 µM (inactive)	70.5 µM (inactive)	30.5 µM (inactive)	–	52.7 µM (inactive)	29.2	36 µM (inactive)	41.8 µM (inactive)	42.2 µM (inactive)	46.2 µM (inactive)	40.6 µM (inactive)	40.2 µM (inactive)	–
CC(C)=CC(=O)C/C(=N\NC(N)=S)C(=O)Nc1ccc(Cl)cc1	> 100 µM (inactive)	> 100 µM (inactive)	> 100 µM (inactive)	–	> 100 µM (inactive)	> 100 µM (inactive)	> 100 µM (inactive)	> 100 µM (inactive)	> 100 µM (inactive)	> 100	> 100 µM (inactive)	> 100 µM (inactive)	> 100 µM (inactive)	> 100 µM (inactive)	> 100 µM (inactive)	> 100 µM (inactive)	> 100 µM (inactive)
CC(=O)n1cc(CC(C)O)c(=O)[nH]c1=O (stereo not drawn)	> 100 µM (inactive)	> 100 µM (inactive)	–	–	> 100 µM (inactive)	> 100 µM (inactive)	> 100 µM (inactive)	> 100 µM (inactive)	> 100 µM (inactive)	> 100	> 100 µM (inactive)	17.1 µM (inactive)	> 100 µM (inactive)	> 100 µM (inactive)	> 100 µM (inactive)	> 100 µM (inactive)	> 100 µM (inactive)
CC(C)=CCCC1(C)C=Cc2c(c(C)cc3c2[nH]c2cc(O)ccc23)O1 (stereo not drawn)	> 25 µM (inactive)	> 25 µM (inactive)	> 25 µM (inactive)	> 25 µM (inactive)	> 25 µM (inactive)	> 25 µM (inactive)	> 25 µM (inactive)	> 25 µM (inactive)	> 25 µM (inactive)	> 25	> 25 µM (inactive)	> 25 µM (inactive)	> 25 µM (inactive)	–	22.5 µM (inactive)	> 25 µM (inactive)	–
